Experimental data taken from US20260297081A1, “COMPOUNDS AND METHODS OF TREATING CANCERS” (Cullgen Inc., priority 2023, published 2026).

How the values were obtained:
Assay type in all cases: cell-based
[1] = tested on: Calu-1 cells; test: Anti-proliferation (viability) of NSCLC Calu-1 cells, 3 days (Table 7, FIG. 2B); conditions: Homo sapiens, 72 h; Calu-1 cells, 3 days, 10-point serial dilution; read-out: GI IC50 in Calu-1
Outline: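 Seed cells, add compound in ten serially diluted concentrations, then incubate (Calu-1: 3 days; T47D: 6 days) before measuring viability.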

[2] = tested on: MCF7 cells; test: Anti-proliferation (viability) of MCF7 cells (Table 7, FIG. 2B); conditions: Homo sapiens, MCF7, MCF7 cells, 3-6 days, 10-point serial dilution; read-out: GI IC50 in MCF-7
[3] = target: CDK4 (Homo sapiens, UniProt P11802+Q16531); test: CDK4 percentage degradation in Calu-1 cells (Table 6); set-up: Cells that express cyclin D1-3 and CDK4/6 proteins were treated with heterobifunctional compounds; endogenous in cells; host or cells: Calu-1; conditions: 16 hours
Sequence of CDK4 (P11802 2-303 limits assumed): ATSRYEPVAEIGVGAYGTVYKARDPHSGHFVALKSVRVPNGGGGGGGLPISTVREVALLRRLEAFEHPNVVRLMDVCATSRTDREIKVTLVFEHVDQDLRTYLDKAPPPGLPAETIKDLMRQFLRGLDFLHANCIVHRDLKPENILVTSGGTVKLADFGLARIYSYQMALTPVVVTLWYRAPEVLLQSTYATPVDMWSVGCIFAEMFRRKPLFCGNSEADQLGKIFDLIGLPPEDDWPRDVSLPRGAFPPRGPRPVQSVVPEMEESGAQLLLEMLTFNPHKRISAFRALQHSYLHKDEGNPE
Sequence of CDK4 (P24385 whole entry partner): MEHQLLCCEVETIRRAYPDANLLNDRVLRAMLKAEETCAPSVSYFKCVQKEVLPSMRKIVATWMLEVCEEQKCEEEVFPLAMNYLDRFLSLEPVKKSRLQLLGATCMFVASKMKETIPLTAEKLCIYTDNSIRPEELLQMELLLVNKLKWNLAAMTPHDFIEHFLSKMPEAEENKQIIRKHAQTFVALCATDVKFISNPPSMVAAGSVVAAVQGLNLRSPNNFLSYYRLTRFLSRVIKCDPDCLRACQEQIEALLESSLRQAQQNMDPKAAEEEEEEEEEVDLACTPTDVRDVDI
Sequence of CDK4 (Q16531 2-1140 limits assumed): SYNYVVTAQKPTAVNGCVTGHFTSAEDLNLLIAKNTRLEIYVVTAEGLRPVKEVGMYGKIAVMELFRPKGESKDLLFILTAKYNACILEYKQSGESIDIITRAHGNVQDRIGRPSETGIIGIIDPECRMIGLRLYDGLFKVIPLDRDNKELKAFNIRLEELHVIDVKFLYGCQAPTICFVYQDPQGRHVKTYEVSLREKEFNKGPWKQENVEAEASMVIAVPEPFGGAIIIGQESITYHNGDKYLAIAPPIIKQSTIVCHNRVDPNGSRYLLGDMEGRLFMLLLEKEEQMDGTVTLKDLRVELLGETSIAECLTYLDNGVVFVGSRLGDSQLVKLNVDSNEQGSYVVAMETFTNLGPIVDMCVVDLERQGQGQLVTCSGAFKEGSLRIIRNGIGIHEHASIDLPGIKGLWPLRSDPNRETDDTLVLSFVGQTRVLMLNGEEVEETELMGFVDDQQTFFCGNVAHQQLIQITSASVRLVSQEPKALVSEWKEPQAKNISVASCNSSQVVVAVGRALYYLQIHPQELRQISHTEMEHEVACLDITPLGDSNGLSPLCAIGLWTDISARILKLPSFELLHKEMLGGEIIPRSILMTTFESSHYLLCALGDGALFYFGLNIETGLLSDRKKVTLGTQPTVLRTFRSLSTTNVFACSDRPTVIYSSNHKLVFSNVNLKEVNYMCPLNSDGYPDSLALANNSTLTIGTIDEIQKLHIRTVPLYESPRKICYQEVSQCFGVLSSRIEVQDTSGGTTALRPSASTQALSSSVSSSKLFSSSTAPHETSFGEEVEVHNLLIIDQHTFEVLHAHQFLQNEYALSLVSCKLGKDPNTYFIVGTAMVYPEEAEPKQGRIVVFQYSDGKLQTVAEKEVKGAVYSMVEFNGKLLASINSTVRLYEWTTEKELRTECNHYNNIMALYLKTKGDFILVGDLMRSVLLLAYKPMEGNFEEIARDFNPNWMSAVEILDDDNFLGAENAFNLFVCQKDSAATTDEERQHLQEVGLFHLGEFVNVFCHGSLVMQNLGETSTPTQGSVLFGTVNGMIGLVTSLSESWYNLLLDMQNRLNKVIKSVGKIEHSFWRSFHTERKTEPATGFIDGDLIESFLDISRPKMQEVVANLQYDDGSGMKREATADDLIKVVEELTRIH
Outline: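 Calu-1 cells exposed to heterobifunctional compounds at 40 nM or 200 nM for 16 h. Cyclin D1 and CDK4 levels measured by Western blot of RIPA lysates (BCA-normalised loading), bands quantified by densitometry and expressed as percentage degradation.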

SMILES: CC(=O)c1c(C)c2cnc(Nc3ccc(N4CCN(CC(=O)NC5CC6(C5)CC(Nc5nc(NC(C)C)ccc5C(=O)Nc5cccc(C)n5)C6)CC4)cn3)nc2n(C2CCCC2)c1=O (centres unmarked) [CPD-190, 2-((6-(2-(4-(6-((6-acetyl-8-cyclopentyl-5-methyl-7-oxo-7,8-dihydropyrido[2,3-d]pyrimidin-2-yl)amino)pyridin-3-yl)piperazin-1-yl)acetamido)spiro[3.3]heptan-2-yl)amino)-6-(isopropylamino)-N-(6-methylpyridin-2-yl)nicotinamide]
- IC50 [1]: ≤ 10 nM
- IC50 [2]: 50 to 100 nM
- inhibition at 0.04 µM ([3]; 40 nM): 50 to 80%
- inhibition at 0.2 µM ([3]; 200 nM): 50 to 80%

SMILES: [2H]C([2H])([2H])Nc1ccc(C(=O)Nc2cc(C)on2)c(NC2CC(CNC(=O)CN3CCN(c4ccc(Nc5ncc6c(C)c(C(C)=O)c(=O)n(C7CCCC7)c6n5)nc4)CC3)C2)n1 (centres unmarked) [CPD-283, 2-((3-((2-(4-(6-((6-acetyl-8-cyclopentyl-5-methyl-7-oxo-7,8-dihydropyrido[2,3-d]pyrimidin-2-yl)amino)pyridin-3-yl)piperazin-1-yl)acetamido)methyl)cyclobutyl)amino)-6-((methyl-d3)amino)-N-(5-methylisoxazol-3-yl)nicotinamide]
- IC50 [1]: ≤ 10 nM
- IC50 [2]: 50 to 100 nM

SMILES: CCN1CCc2cc(-c3nc(Nc4ccc(CN5CCN(CC(=O)NC6CC7(C6)CC(Nc6nc(NC(C)C)ccc6C(=O)Nc6ccc(N(C)C)nn6)C7)CC5)cn4)ncc3F)ccc2C1=O (centres unmarked) [CPD-554, N-(6-(dimethylamino)pyridazin-3-yl)-2-((6-(2-(4-((6-((4-(2-ethyl-1-oxo-1,2,3,4-tetrahydroisoquinolin-6-yl)-5-fluoropyrimidin-2-yl)amino)pyridin-3-yl)methyl)piperazin-1-yl)acetamido)spiro[3.3]heptan-2-yl)amino)-6-(isopropylamino)nicotinamide]
- IC50 [1]: ≥ 50 nM
- IC50 [2]: > 100 nM

SMILES: CC(=O)c1c(C)c2cnc(Nc3ccc(N4CCN(C5CCN(C(=O)C67CC(Nc8nc(NC(C)C)ccc8C(=O)Nc8ccc(N(C)C)nn8)(C6)C7)C5)CC4)cn3)nc2n(C2CCCC2)c1=O (centres unmarked) [CPD-534, 2-((3-(3-(4-(6-((6-acetyl-8-cyclopentyl-5-methyl-7-oxo-7,8-dihydropyrido[2,3-d]pyrimidin-2-yl)amino)pyridin-3-yl)piperazin-1-yl)pyrrolidine-1-carbonyl)bicyclo[1.1.1]pentan-1-yl)amino)-N-(6-(dimethylamino)pyridazin-3-yl)-6-(isopropylamino)nicotinamide]
- IC50 [1]: ≤ 10 nM
- IC50 [2]: < 50 nM

SMILES: CC(=O)c1c(C)c2cnc(Nc3ccc(N4CCN(C5CCN(C(=O)[C@H]6CC[C@H](Nc7cc(C(C)C)ccc7C(=O)Nc7ccc(N(C)C)nn7)CC6)C5)CC4)cn3)nc2n(C2CCCC2)c1=O (stereo partly drawn) [CPD-528, 2-((trans-4-(3-(4-(6-((6-acetyl-8-cyclopentyl-5-methyl-7-oxo-7,8-dihydropyrido[2,3-d]pyrimidin-2-yl)amino)pyridin-3-yl)piperazin-1-yl)pyrrolidine-1-carbonyl)cyclohexyl)amino)-N-(6-(dimethylamino)pyridazin-3-yl)-4-isopropylbenzamide]
- IC50 [1]: ≤ 10 nM
- IC50 [2]: < 50 nM

SMILES: CC(=O)c1c(C)c2cnc(Nc3ccc(N4CCN(C5CCN(C(=O)[C@H]6CC[C@H](Nc7nc(NC(C)C)ccc7-c7nc8cc(N(C)C)ccc8[nH]7)CC6)C5)CC4)cn3)nc2n(C2CCCC2)c1=O (relative stereo) [CPD-540, trans-6-acetyl-8-cyclopentyl-2-((5-(4-(1-(4-((3-(5-(dimethylamino)-1H-benzo[d]imidazol-2-yl)-6-(isopropylamino)pyridin-2-yl)amino)cyclohexane-1-carbonyl)pyrrolidin-3-yl)piperazin-1-yl)pyridin-2-yl)amino)-5-methylpyrido[2,3-d]pyrimidin-7(8H)-one]
- IC50 [1]: ≥ 50 nM
- IC50 [2]: > 100 nM

SMILES: CC(=O)c1c(C)c2cnc(Nc3ccc(N4CCN(CC(=O)NC5CC6(C5)CC(Nc5nc(NC(C)C)ccc5C(=O)Nc5ccc(N(C)C)nn5)C6)CC4)cn3)nc2n(C2CCCC2)c1=O (centres unmarked) [CPD-272, 2-((6-(2-(4-(6-((6-acetyl-8-cyclopentyl-5-methyl-7-oxo-7,8-dihydropyrido[2,3-d]pyrimidin-2-yl)amino)pyridin-3-yl)piperazin-1-yl)acetamido)spiro[3.3]heptan-2-yl)amino)-N-(6-(dimethylamino)pyridazin-3-yl)-6-(isopropylamino)nicotinamide]
- IC50 [1]: ≤ 10 nM
- IC50 [2]: < 50 nM

SMILES: CC(=O)c1c(C)c2cnc(Nc3ccc(N4CCN(C5CCN(C(=O)[C@H]6CC[C@H](Nc7nc(NC(C)C)ccc7-c7nc8cnc(N(C)C)cc8[nH]7)CC6)C5)CC4)cn3)nc2n(C2CCCC2)c1=O (stereo partly drawn) [CPD-552, trans-6-acetyl-8-cyclopentyl-2-((5-(4-(1-(trans-4-((3-(6-(dimethylamino)-3H-imidazo[4,5-c]pyridin-2-yl)-6-(isopropylamino)pyridin-2-yl)amino)cyclohexane-1-carbonyl)pyrrolidin-3-yl)piperazin-1-yl)pyridin-2-yl)amino)-5-methylpyrido[2,3-d]pyrimidin-7(8H)-one]
- IC50 [1]: ≥ 50 nM
- IC50 [2]: > 100 nM

SMILES: CC(=O)c1c(C)c2cnc(Nc3ccc(N4CCN(CC(=O)N5CCC(Nc6nc(NC(C)C)ccc6C(=O)Nc6cn(C)c(C7CC7)n6)CC5)CC4)cn3)nc2n(C2CCCC2)c1=O [CPD-279, 2-((1-(2-(4-(6-((6-acetyl-8-cyclopentyl-5-methyl-7-oxo-7,8-dihydropyrido[2,3-d]pyrimidin-2-yl)amino)pyridin-3-yl)piperazin-1-yl)acetyl)piperidin-4-yl)amino)-N-(2-cyclopropyl-1-methyl-1H-imidazol-4-yl)-6-(isopropylamino)nicotinamide]
- IC50 [1]: 10 to 50 nM
- IC50 [2]: > 100 nM

SMILES: CC(=O)c1c(C)c2cnc(Nc3ccc(N4CCN(CCC(=O)N5CCC(Nc6nc(NC(C)C)ccc6C(=O)Nc6cn(C)c(C7CC7)n6)C5)CC4)cn3)nc2n(C2CCCC2)c1=O (centres unmarked) [CPD-274, 2-((1-(3-(4-(6-((6-acetyl-8-cyclopentyl-5-methyl-7-oxo-7,8-dihydropyrido[2,3-d]pyrimidin-2-yl)amino)pyridin-3-yl)piperazin-1-yl)propanoyl)pyrrolidin-3-yl)amino)-N-(2-cyclopropyl-1-methyl-1H-imidazol-4-yl)-6-(isopropylamino)nicotinamide]
- IC50 [1]: 10 to 50 nM
- IC50 [2]: > 100 nM

SMILES: CC(=O)c1c(C)c2cnc(Nc3ccc(N4CC5(CN(CC(=O)NC6CC7(C6)CC(Nc6nc(NC(C)C)ccc6C(=O)Nc6ccc(N(C)C)nn6)C7)C5)C4)cn3)nc2n(C2CCCC2)c1=O (centres unmarked) [CPD-467, 2-((6-(2-(6-(6-((6-acetyl-8-cyclopentyl-5-methyl-7-oxo-7,8-dihydropyrido[2,3-d]pyrimidin-2-yl)amino)pyridin-3-yl)-2,6-diazaspiro[3.3]heptan-2-yl)acetamido)spiro[3.3]heptan-2-yl)amino)-N-(6-(dimethylamino)pyridazin-3-yl)-6-(isopropylamino)nicotinamide]
- IC50 [1]: ≤ 10 nM
- IC50 [2]: > 100 nM

SMILES: CC(=O)c1c(C)c2cnc(Nc3ccc(N4CCN(C5CCN(C(=O)[C@H]6CC[C@H](Nc7nc(NC(C)C)ccc7-c7nc8ccc(N(C)C)nc8[nH]7)CC6)C5)CC4)cn3)nc2n(C2CCCC2)c1=O (relative stereo) [CPD-546, trans-6-acetyl-8-cyclopentyl-2-((5-(4-(1-(4-((3-(5-(dimethylamino)-3H-imidazo[4,5-b]pyridin-2-yl)-6-(isopropylamino)pyridin-2-yl)amino)cyclohexane-1-carbonyl)pyrrolidin-3-yl)piperazin-1-yl)pyridin-2-yl)amino)-5-methylpyrido[2,3-d]pyrimidin-7(8H)-one]
- IC50 [1]: ≤ 10 nM
- IC50 [2]: < 50 nM

SMILES: CC(=O)c1c(C)c2cnc(Nc3ccc(N4CCN(C5CCN(C(=O)[C@H]6CC[C@H](Nc7nc(C(F)(F)F)ccc7C(=O)Nc7ccc(N(C)C)nn7)CC6)C5)CC4)cn3)nc2n(C2CCCC2)c1=O (stereo partly drawn) [CPD-571, 2-((trans-4-(3-(4-(6-((6-acetyl-8-cyclopentyl-5-methyl-7-oxo-7,8-dihydropyrido[2,3-d]pyrimidin-2-yl)amino)pyridin-3-yl)piperazin-1-yl)pyrrolidine-1-carbonyl)cyclohexyl)amino)-N-(6-(dimethylamino)pyridazin-3-yl)-6-(trifluoromethyl)nicotinamide]
- IC50 [1]: ≤ 10 nM
- IC50 [2]: < 50 nM

SMILES: CC(=O)c1c(C)c2cnc(Nc3ccc(N4CC5(CN(CCC(=O)N6CCC(Nc7nc(NC(C)C)ccc7C(=O)Nc7ccc(N(C)C)nn7)CC6)C5)C4)cn3)nc2n(C2CCCC2)c1=O [CPD-454, 2-((1-(3-(6-(6-((6-acetyl-8-cyclopentyl-5-methyl-7-oxo-7,8-dihydropyrido[2,3-d]pyrimidin-2-yl)amino)pyridin-3-yl)-2,6-diazaspiro[3.3]heptan-2-yl)propanoyl)piperidin-4-yl)amino)-N-(6-(dimethylamino)pyridazin-3-yl)-6-(isopropylamino)nicotinamide]
- IC50 [1]: 10 to 50 nM
- IC50 [2]: > 100 nM

SMILES: CC(=O)c1c(C)c2cnc(Nc3ccc(N4CCN(C5CCN(C(=O)[C@H]6CC[C@H](Nc7nc(NC(C)C)ccc7C(=O)Nc7cn8c(n7)CCC8)CC6)C5)CC4)cn3)nc2n(C2CCCC2)c1=O (stereo partly drawn) [CPD-568, 2-((trans-4-(3-(4-(6-((6-acetyl-8-cyclopentyl-5-methyl-7-oxo-7,8-dihydropyrido[2,3-d]pyrimidin-2-yl)amino)pyridin-3-yl)piperazin-1-yl)pyrrolidine-1-carbonyl)cyclohexyl)amino)-N-(6,7-dihydro-5H-pyrrolo[1,2-a]imidazol-2-yl)-6-(isopropylamino)nicotinamide]
- IC50 [1]: ≤ 10 nM
- IC50 [2]: > 100 nM
